{
  "source": "patent US20240174618A1",
  "about": "“SUBSTITUTED (2-HETEROARYLOXYPHENYL)SULFONATES, SALTS THEREOF AND THEIR USE AS HERBICIDAL AGENTS” (Bayer Aktiengesellschaft, priority 2021, published 2024)",
  "assay_type_in_all_cases": "in vivo",
  "key": {"[1]": {"system": "Digitaria sanguinalis (DIGSA)", "assay": "E. Herbicidal post-emergence efficacy, DIGSA", "description": "(§1) Seeds of monocotyledonous and dicotyledonous weeds and crop plants were placed in sandy loam in plastic or organic planting pots, covered with soil and cultivated in a greenhouse under controlled growth conditions. 2 to 3 weeks after sowing, the test plants were treated at the one-leaf stage. The compounds of the invention, formulated in the form of wettable powders (WP) or as emulsion concentrates (EC), were then sprayed onto the green parts of the plants as aqueous suspension or emulsion with addition of 0.5% additive at a water application rate of 600 l/ha (converted). After the test plants had been kept in the greenhouse under optimum growth conditions for about 3 weeks, the activity of the preparations was rated visually in comparison to untreated controls.\n(§2) For example, • 100% efficacy=plants have died, • 0% action=like untreated control plants.\n(§3) Tables E1a to E12b below show the effects of selected compounds of the general formula (I) according to table 1 on various harmful plants at an application rate corresponding to 320 g/ha or less, which were obtained by the experimental procedure mentioned above."}, "Oryza sativa (ORYSA) [2]": {"system": "Oryza sativa (ORYSA)", "assay": "D. Pre-emergence effect on useful plants, ORYSA", "settings": "useful plant", "description": "(§4) Seeds of monocotyledonous and dicotyledonous weed plants and crop plants were placed in plastic or organic planting pots and covered with soil. The compounds of the invention, formulated in the form of wettable powders (WP) or as emulsion concentrates (EC), were then applied to the surface of the covering soil as aqueous suspension or emulsion with addition of 0.5% additive at a water application rate equivalent to 600 l/ha (converted). After the treatment, the pots were placed in a greenhouse and kept under good growth conditions for the test plants. After about 3 weeks, the efficacy of the preparations was scored visually in comparison with untreated controls as percentages. For example, • 100% efficacy=plants have died, • 0% efficacy=like untreated control plants.\n(§5) Tables D1a to D5b below show the effects of selected compounds of the general formula (I) according to table 1 on various useful plants at an application rate corresponding to 320 g/ha or less, which were obtained by the experimental procedure mentioned above."}, "Brassica napus (BRSNW)": {"system": "Brassica napus (BRSNW)", "assay": "D. Pre-emergence effect on useful plants, BRSNW", "settings": "useful plant", "description": "as §4, §5"}, "Oryza sativa (ORYSA) [3]": {"system": "Oryza sativa (ORYSA)", "assay": "F. Post-emergence effect on useful plants, ORYSA", "settings": "useful plant", "description": "as §1, §2\nTables F1a to F4 below show the effects of selected compounds of the general formula (I) according to table 1 on various useful plants at an application rate corresponding to 320 g/ha or less, which were obtained by the experimental procedure mentioned above."}, "[4]": {"system": "Matricaria inodora (MATIN)", "assay": "B. Herbicidal post-emergence efficacy, MATIN", "description": "Seeds of mono- and dicotyledonous weed plants were placed in plastic pots in sandy loam soil (doubly sown with in each case one species of mono- or dicotyledonous weed plants per pot), covered with soil and cultivated in a greenhouse under controlled growth conditions. 2 to 3 weeks after sowing, the test plants were treated at the one-leaf stage. The compounds of the invention, formulated in the form of wettable powders (WP) or as emulsion concentrates (EC), were applied onto the green parts of the plants as aqueous suspension or emulsion with addition of 0.5% additive at a water application rate of 600 liters per hectare (converted). After the test plants had been kept in the greenhouse under optimum growth conditions for about 3 weeks, the activity of the preparations was rated visually in comparison to untreated controls.\nFor example, • 100% efficacy=plants have died, • 0% efficacy=like untreated control plants\nTables B1a to B12c below show the effects of selected inventive compounds of the general formula (I) according to table 1 on various harmful plants at an application rate corresponding to 1280 g/ha or less, which were obtained by the experimental procedure mentioned above."}, "Lolium rigidum (LOLRI)": {"system": "Lolium rigidum (LOLRI)", "assay": "E. Herbicidal post-emergence efficacy, LOLRI", "description": "as §1, §2, §3"}, "Glycine max (GLXMA)": {"system": "Glycine max (GLXMA)", "assay": "D. Pre-emergence effect on useful plants, GLXMA", "settings": "useful plant, application rate 80 g/ha", "description": "as §4, §5"}},
  "data": [
    {"smiles": "O=S(=O)(CCC(F)(F)F)Oc1c(F)cccc1Oc1ncc(Br)cn1", "note": "[Example I-40]", "values": [
      {"measurement": "Post-emergence efficacy against DIGSA in %", "setting": "[1]; application rate 80 g/ha", "value": 80, "unit": "%"},
      {"measurement": "Post-emergence efficacy against DIGSA in %", "setting": "[1]; application rate 320 g/ha", "value": 100, "unit": "%"}
    ]},
    {"smiles": "CCCCCS(=O)(=O)Oc1ccccc1Oc1ncc(Cl)cn1", "note": "[Example I-24]", "values": [
      {"measurement": "Pre-emergence efficacy against ORYSA in %", "setting": "Oryza sativa (ORYSA) [2]; application rate 80 g/ha", "value": 0, "unit": "%"},
      {"measurement": "Pre-emergence efficacy against ORYSA in %", "setting": "Oryza sativa (ORYSA) [2]; application rate 320 g/ha", "value": 20, "unit": "%"},
      {"measurement": "Pre-emergence efficacy against BRSNW in %", "setting": "Brassica napus (BRSNW); application rate 80 g/ha", "value": 0, "unit": "%"},
      {"measurement": "Pre-emergence efficacy against BRSNW in %", "setting": "Brassica napus (BRSNW); application rate 320 g/ha", "value": 0, "unit": "%"},
      {"measurement": "Post-emergence efficacy against ORYSA in %", "setting": "Oryza sativa (ORYSA) [3]; application rate 80 g/ha", "value": 0, "unit": "%"},
      {"measurement": "Post-emergence efficacy against ORYSA in %", "setting": "Oryza sativa (ORYSA) [3]; application rate 320 g/ha", "value": 0, "unit": "%"}
    ]},
    {"smiles": "O=S(=O)(CCCC(F)F)Oc1c(F)cccc1Oc1ncc(Cl)cn1", "note": "[Example I-56]", "values": [
      {"measurement": "Post-emergence efficacy against DIGSA in %", "setting": "[1]; application rate 320 g/ha", "value": 100, "unit": "%"},
      {"measurement": "Post-emergence efficacy against MATIN", "setting": "[4]; 320 g/ha", "value": 90, "unit": "%"},
      {"measurement": "Post-emergence efficacy against MATIN", "setting": "[4]; 1280 g/ha", "value": 90, "unit": "%"}
    ]},
    {"smiles": "O=S(=O)(CCCCl)Oc1ccccc1Oc1ncc(F)cn1", "note": "[Example I-5]", "values": [
      {"measurement": "Post-emergence efficacy against LOLRI in %", "setting": "Lolium rigidum (LOLRI); application rate 320 g/ha", "value": 90, "unit": "%"},
      {"measurement": "Post-emergence efficacy against ORYSA in %", "setting": "Oryza sativa (ORYSA) [3]; application rate 80 g/ha", "value": 20, "unit": "%"},
      {"measurement": "Post-emergence efficacy against MATIN", "setting": "[4]; 1280 g/ha", "value": 90, "unit": "%"}
    ]},
    {"smiles": "C=CCCS(=O)(=O)Oc1c(F)cccc1Oc1ncc(Cl)cn1", "note": "[Example I-50]", "values": [
      {"measurement": "Post-emergence efficacy against MATIN", "setting": "[4]; 1280 g/ha", "value": 90, "unit": "%"}
    ]},
    {"smiles": "CC(C)CCS(=O)(=O)Oc1ccccc1Oc1ncc(Cl)cn1", "note": "[Example I-25]", "values": [
      {"measurement": "Pre-emergence efficacy against GLXMA in %", "setting": "Glycine max (GLXMA)", "value": 0, "unit": "%"},
      {"measurement": "Pre-emergence efficacy against ORYSA in %", "setting": "Oryza sativa (ORYSA) [2]; application rate 80 g/ha", "value": 0, "unit": "%"},
      {"measurement": "Post-emergence efficacy against ORYSA in %", "setting": "Oryza sativa (ORYSA) [3]; application rate 80 g/ha", "value": 0, "unit": "%"}
    ]},
    {"smiles": "O=S(=O)(CCCCCl)Oc1ccccc1Oc1ncc(Cl)cn1", "note": "[Example I-15]", "values": [
      {"measurement": "Post-emergence efficacy against DIGSA in %", "setting": "[1]; application rate 80 g/ha", "value": 80, "unit": "%"},
      {"measurement": "Post-emergence efficacy against DIGSA in %", "setting": "[1]; application rate 320 g/ha", "value": 90, "unit": "%"},
      {"measurement": "Post-emergence efficacy against ORYSA in %", "setting": "Oryza sativa (ORYSA) [3]; application rate 80 g/ha", "value": 0, "unit": "%"},
      {"measurement": "Post-emergence efficacy against ORYSA in %", "setting": "Oryza sativa (ORYSA) [3]; application rate 320 g/ha", "value": 20, "unit": "%"}
    ]},
    {"smiles": "O=S(=O)(CCCC(F)(F)F)Oc1c(F)cccc1Oc1ncc(F)cn1", "note": "[Example I-42]", "values": [
      {"measurement": "Post-emergence efficacy against LOLRI in %", "setting": "Lolium rigidum (LOLRI); application rate 80 g/ha", "value": 80, "unit": "%"},
      {"measurement": "Post-emergence efficacy against LOLRI in %", "setting": "Lolium rigidum (LOLRI); application rate 320 g/ha", "value": 100, "unit": "%"},
      {"measurement": "Post-emergence efficacy against DIGSA in %", "setting": "[1]; application rate 80 g/ha", "value": 90, "unit": "%"},
      {"measurement": "Post-emergence efficacy against DIGSA in %", "setting": "[1]; application rate 320 g/ha", "value": 90, "unit": "%"}
    ]},
    {"smiles": "O=S(=O)(CC1CC(F)(F)C1)Oc1c(F)cccc1Oc1ncc(Cl)cn1", "note": "[Example I-53]", "values": [
      {"measurement": "Post-emergence efficacy against LOLRI in %", "setting": "Lolium rigidum (LOLRI); application rate 80 g/ha", "value": 80, "unit": "%"},
      {"measurement": "Post-emergence efficacy against LOLRI in %", "setting": "Lolium rigidum (LOLRI); application rate 320 g/ha", "value": 100, "unit": "%"},
      {"measurement": "Post-emergence efficacy against DIGSA in %", "setting": "[1]; application rate 80 g/ha", "value": 90, "unit": "%"},
      {"measurement": "Post-emergence efficacy against DIGSA in %", "setting": "[1]; application rate 320 g/ha", "value": 90, "unit": "%"}
    ]},
    {"smiles": "CC(C)CS(=O)(=O)Oc1ccccc1Oc1ncc(Cl)cn1", "note": "[Example I-7, [2-(5-Chloropyrimidin-2-yl)oxyphenyl] 2-methylpropane-1-sulfonate]", "values": [
      {"measurement": "Post-emergence efficacy against DIGSA in %", "setting": "[1]; application rate 80 g/ha", "value": 90, "unit": "%"},
      {"measurement": "Post-emergence efficacy against DIGSA in %", "setting": "[1]; application rate 320 g/ha", "value": 100, "unit": "%"}
    ]},
    {"smiles": "C=CCS(=O)(=O)Oc1ccccc1Oc1ncc(Cl)cn1", "note": "[Example I-36]", "values": [
      {"measurement": "Pre-emergence efficacy against GLXMA in %", "setting": "Glycine max (GLXMA)", "value": 0, "unit": "%"}
    ]},
    {"smiles": "O=S(=O)(CCC(F)=C(F)F)Oc1c(F)cccc1Oc1ncc(Cl)cn1", "note": "[Example I-70]", "values": [
      {"measurement": "Post-emergence efficacy against DIGSA in %", "setting": "[1]; application rate 320 g/ha", "value": 90, "unit": "%"}
    ]},
    {"smiles": "O=S(=O)(CCCC(F)(F)F)Oc1c(F)cccc1Oc1ncc(Br)cn1", "note": "[Example I-41]", "values": [
      {"measurement": "Post-emergence efficacy against DIGSA in %", "setting": "[1]; application rate 80 g/ha", "value": 100, "unit": "%"},
      {"measurement": "Post-emergence efficacy against DIGSA in %", "setting": "[1]; application rate 320 g/ha", "value": 100, "unit": "%"}
    ]},
    {"smiles": "CCCCS(=O)(=O)Oc1ccccc1Oc1ncc(Cl)cn1", "note": "[Example I-6]", "values": [
      {"measurement": "Post-emergence efficacy against DIGSA in %", "setting": "[1]; application rate 80 g/ha", "value": 80, "unit": "%"},
      {"measurement": "Post-emergence efficacy against DIGSA in %", "setting": "[1]; application rate 320 g/ha", "value": 100, "unit": "%"}
    ]},
    {"smiles": "CCCS(=O)(=O)Oc1ccccc1Oc1ncc(Cl)cn1", "note": "[Example I-3]", "values": [
      {"measurement": "Pre-emergence efficacy against ORYSA in %", "setting": "Oryza sativa (ORYSA) [2]; application rate 80 g/ha", "value": 20, "unit": "%"},
      {"measurement": "Post-emergence efficacy against ORYSA in %", "setting": "Oryza sativa (ORYSA) [3]; application rate 80 g/ha", "value": 10, "unit": "%"}
    ]}
  ]
}
